{"source": "patent US20220211691A1", "about": "“TREATMENT OF DRY EYE DISEASE” (Aldeyra Therapeutics, Inc., priority 2021, published 2022)", "type_in_all_cases": "in vivo, human", "key": {"[1]": {"tested_on": "subjects with dry eye disease", "experiment": "CAE clinical study, initial cohort, Day 1 dry eye assessments", "settings": "N = 12; for Schirmer's Test, Change From Baseline: Day 1, after a single dose, vehicle +1.3, P-Value 0.30; for OD4S: Dryness (0-5), Change From Baseline / OD4S: Grittiness (0-5), Change From Baseline: vehicle +0.1, P-Value 0.006; for OD4S: Discomfort (0-5), Change From Baseline / VAS Dryness (0-100), Change From Baseline: P-Value 0.003; for VAS Dryness (0-100), Change From Baseline: vehicle +2", "procedure": "The objective of the study is to evaluate the efficacy of reproxalap, as assessed by tear reactive aldehyde species (RASP) levels, after single and multiple doses in subjects with dry eye disease. The efficacy of reproxalap will also be assessed by tear RASP levels, conjunctival redness, Schirmer's Test, and dry eye symptoms after dosing immediately prior to and during exposure to the Controlled Adverse Environment (CAE®) over 2 hours, in subjects with dry eye disease. CAE® chambers allow standardization of variables, such as temperature, humidity, airflow, and visual tasking (see Calonge et al., Current Eye Res., 2018, 43(4):445-450; see also Ousler, III et al., Ophthalmol Ther., 2017, 6(2): 263-276) Dosage/Dose Regimen. A Reproxalap solution (0.25% w/v or 0.1% w/v) is administered topically to both eyes. The control is a Vehicle Control Solution. The test article is administered QID on Day 1 (Visit 2). On Day 2 (Visit 3), test article is administered once 2 or 5 minutes immediately prior to the CAE®, once 45 minutes after initiation of the CAE®, and once at CAE® exit. The primary endpoint is the change in levels of reactive aldehyde species (RASP) in tears. Secondary endpoints include the following: • Visual analog scale eye dryness score assessed over 90 minutes in CAE®. • Ora Calibra Ocular Discomfort Scale assessed over 90 minutes in CAE®. • Conjunctival redness assessed at over 90 minutes via digital photography in the CAE® (Key Secondary Sign Endpoint). • Schirmer's Test assessed 10 minutes after dosing. • Post-CAE® RASP change from baseline. General Statistical Methods and Types of Analyses. The primary endpoint and secondary endpoints of Schirmer's Test and post-CAE® RASP is assessed via analysis of covariance (ANCOVA), with baseline score as a covariate. Initial Cohort of the trial will enroll twenty subject who meet the inclusion criteria. The Initial Cohort phase will be limited to Visit 1 (Screening), Visit 2 (Day 1), and Visit 3 (Day 2). At Day 1, evaluations include Dry Eye symptoms, Schirmer's test, and tear RASP levels. At Day 2 (Chamber test), evaluations include Dry Eye symptoms, Ocular Redness, and tear RASP levels. • Day 1 Schirmer's Test results is based on improvement after a single dose; all other Day 1 assessments were performed over 24 hours of QID dosing."}, "[2]": {"experiment": "Safety of topical ocular reproxalap across clinical trials", "procedure": "• Day 1 Schirmer's Test results is based on improvement after a single dose; all other Day 1 assessments were performed over 24 hours of QID dosing."}, "[3]": {"tested_on": "subjects with dry eye disease", "experiment": "CAE clinical study, initial cohort, Day 2 dry eye chamber", "procedure": "The objective of the study is to evaluate the efficacy of reproxalap, as assessed by tear reactive aldehyde species (RASP) levels, after single and multiple doses in subjects with dry eye disease. The efficacy of reproxalap will also be assessed by tear RASP levels, conjunctival redness, Schirmer's Test, and dry eye symptoms after dosing immediately prior to and during exposure to the Controlled Adverse Environment (CAE®) over 2 hours, in subjects with dry eye disease. CAE® chambers allow standardization of variables, such as temperature, humidity, airflow, and visual tasking (see Calonge et al., Current Eye Res., 2018, 43(4):445-450; see also Ousler, III et al., Ophthalmol Ther., 2017, 6(2): 263-276) Dosage/Dose Regimen. A Reproxalap solution (0.25% w/v or 0.1% w/v) is administered topically to both eyes. The control is a Vehicle Control Solution. The test article is administered QID on Day 1 (Visit 2). On Day 2 (Visit 3), test article is administered once 2 or 5 minutes immediately prior to the CAE®, once 45 minutes after initiation of the CAE®, and once at CAE® exit. The primary endpoint is the change in levels of reactive aldehyde species (RASP) in tears. Secondary endpoints include the following: • Visual analog scale eye dryness score assessed over 90 minutes in CAE®. • Ora Calibra Ocular Discomfort Scale assessed over 90 minutes in CAE®. • Conjunctival redness assessed at over 90 minutes via digital photography in the CAE® (Key Secondary Sign Endpoint). • Schirmer's Test assessed 10 minutes after dosing. • Post-CAE® RASP change from baseline. Secondary endpoints of conjunctival redness and symptoms in the CAE® is assessed via mixed effect model for repeated measures (MMRM), with baseline score as a covariate, and time and test article group as factors. In one of the CAE® studies, one dose is given 2 min prior to chamber entry. Another dose is administered 45 min after chamber entry. In some instances, subjects receive one day prior to chamber entry. Thus, some subjects receive: one dose on day prior to, one dose immediately before, and one dose 45 min after entry into a 90 min dry eye chamber with minimal humidity, high airflow, and forced visual tasking. In some instances, the subjects are given a dose at exit of the CAE®."}, "[4]": {"tested_on": "malondialdehyde (MDA) adducts in tears", "experiment": "MDA adduct competitive ELISA of tears, Phase 2a clinical study", "settings": "28 days / 4-week treatment, all treatment groups pooled", "excerpt": "The study was to assess levels of malondialdehyde (MDA) adducts in tears collected from subjects with dry eye disease enrolled in a Phase 2a, randomized, double-masked, clinical study to assess the safety, tolerability, and pharmacodynamic activity of ADX-102 ophthalmic solution in subjects with dry eye diseases, also referred to herein as dry eye syndrome (DES).\nTears were collected during Visit 1, prior to treatment, and during Visit 3, following four weeks of treatment. Treatment groups consisted of ADX-102 Ophthalmic Solution (0.5%), ADX-102 Ophthalmic Solution (0.1%), and ADX-102 Ophthalmic Lipid Solution (0.5%). […]\nThe assay is a competitive ELISA. […] The plate is read in a microplate reader at 450 nm. The assay OD reading decreases with increasing MDA adducts in the samples, as the adsorbed MDA competes for binding to the MDA antibody with MDA adducts in the test sample. […]\nDES Study Samples. Based on the results of the pilot assay, a 1:60 dilution was determined to maximize the likelihood of the OD values falling within the linear portion of the standard curve, and thus provide the most accurate results. All tear samples from subjects (0.5% ADX-102 Ophthalmic Solution) and (0.1% ADX-102 Ophthalmic Solution) were analyzed, but results from some tear samples were excluded from the data analysis due to contamination with ocular staining dye in the Visit 3 samples. […]"}, "[5]": {"settings": "Day 1, over 24 hours of QID dosing"}, "[6]": {"settings": "Day 1, over 24 hours of QID dosing, listed as reproxalap"}}, "data": [{"smiles": "CC(C)(O)c1nc2ccc(Cl)cc2cc1N", "note": "[Reproxalap, reproxalap]", "values": [{"measurement": "Schirmer's Test, Change From Baseline", "setting": "[1]", "value": "+3.4 mm"}, {"measurement": "Schirmer's Test, Change From Baseline", "setting": "[1]; listed as reproxalap", "value": "directionally in favor of reproxalap over vehicle"}, {"measurement": "OD4S: Dryness (0-5), Change From Baseline", "setting": "[1]; [5]", "value": "−1.2"}, {"measurement": "OD4S: Grittiness (0-5), Change From Baseline", "setting": "[1]; [5]", "value": "−1.1"}, {"measurement": "OD4S: Dryness (0-5), Change From Baseline", "setting": "[1]; [6]", "value": "statistically superior to vehicle"}, {"measurement": "OD4S: Grittiness (0-5), Change From Baseline", "setting": "[1]; [6]", "value": "statistically superior to vehicle"}, {"measurement": "OD4S: Discomfort (0-5), Change From Baseline", "setting": "[1]; Day 1, over 24 hours of QID dosing, vehicle +0.4", "value": "−0.7"}, {"measurement": "OD4S: Discomfort (0-5), Change From Baseline", "setting": "[1]; Day 1, over 24 hours of QID dosing, vehicle +0.4, listed as reproxalap", "value": "statistically superior to vehicle"}, {"measurement": "Ocular Discomfort Scale (0-4), Change From Baseline", "setting": "[1]; Day 1, over 24 hours of QID dosing, vehicle +0.4, P-Value 0.07", "value": "−0.7"}, {"measurement": "OD4S: Sting (0-5), Change From Baseline", "setting": "[1]; Day 1, over 24 hours of QID dosing, vehicle +0.4, P-Value 0.23", "value": "−0.1"}, {"measurement": "OD4S: Burn (0-5), Change From Baseline", "setting": "[1]; Day 1, over 24 hours of QID dosing, vehicle +0.8, P-Value 0.07", "value": "−0.1"}, {"measurement": "VAS Dryness (0-100), Change From Baseline", "setting": "[1]; [5]", "value": "−26"}, {"measurement": "VAS Dryness (0-100), Change From Baseline", "setting": "[1]; [6]", "value": "statistically superior to vehicle"}, {"measurement": "most commonly reported adverse event in clinical trials", "setting": "[2]; human, in vivo", "value": "mild instillation site irritation"}, {"measurement": "safety in clinical trials", "setting": "[2]; studied in over 1,100 patients", "value": "no observed safety concerns"}, {"measurement": "ocular redness versus vehicle", "setting": "[3]; Day 2, dry eye chamber, p=0.03", "value": "statistically significant improvement over vehicle"}, {"measurement": "ocular discomfort score versus vehicle", "setting": "[3]; Day 2, over all time points in aggregate in the dry eye chamber, p<0.0001", "value": "statistically superior to vehicle"}, {"measurement": "visual analog scale (VAS) ocular dryness versus vehicle", "setting": "[3]; Day 2, over all time points in aggregate in the dry eye chamber, p=0.001", "value": "statistically superior to vehicle"}, {"measurement": "time to improvement in ocular symptoms and redness following dosing", "setting": "[3]; dry eye chamber", "value": "within minutes"}, {"measurement": "tear MDA adduct level after treatment relative to baseline, pooled groups", "setting": "[4]", "value": "statistically lower"}]}]}
